Measured values reported in ChEMBL document CHEMBL1201862, “PubChem BioAssay data set” (2004).
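How tested: cells in 96-well plates exposed to compound for 48 hours at five concentrations. Abbreviation: GI50, concentration required for 50% inhibition of growth.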 Activity calls are given as the source filed them. No stated cut-off is given here; in the data, active = GI50 up to about 1.1 µM and inactive = higher.

What was measured:
Experiment in all cases: DTP human tumour cell line panel, 48 h
786-0 = test system: 786-0
A549 = test system: A549
HCC 2998 = test system: HCC 2998
HCT-15 = test system: HCT-15
HL-60 = test system: HL-60
HOP-92 = test system: HOP-92
M14 = test system: M14
M19-MEL = test system: M19-MEL
MDA-MB-231 = test system: MDA-MB-231
MOLT-4 = test system: MOLT-4
NCI-H226 = test system: NCI-H226
OVCAR-3 = test system: OVCAR-3
OVCAR-8 = test system: OVCAR-8
RXF 393 = test system: RXF 393
SF-268 = test system: SF-268
SK-MEL-28 = test system: SK-MEL-28
SNB-75 = test system: SNB-75
SW-620 = test system: SW-620
UACC-257 = test system: UACC-257
UO-31 = test system: UO-31

Measured: GI50

CC(=O)c1cccc(NC2C(N)C(NC(=O)N(C)C)(C(C)O)C(C)(O)C2(O)COC(=O)c2c(C)cccc2O)c1 (stereo not drawn)
0.00296 µM: HCT-15
active: 786-0 < 0.001 µM | A549 < 0.001 µM | HCC 2998 < 0.001 µM | HL-60 < 0.001 µM | HOP-92 < 0.001 µM | M14 0.0118 µM | M19-MEL 0.01 µM | MDA-MB-231 0.00187 µM | MOLT-4 < 0.001 µM | NCI-H226 < 0.001 µM | OVCAR-3 0.01 µM | OVCAR-8 < 0.001 µM | RXF 393 < 0.001 µM | SF-268 0.0263 µM | SK-MEL-28 < 0.001 µM | SNB-75 0.0948 µM | SW-620 < 0.001 µM | UACC-257 0.00113 µM | UO-31 0.00191 µM

CN(C)CCS/C(=N\c1ccccc1)N1C=COC=C1
inactive: 786-0 20.1 µM | A549 > 100 µM | HCC 2998 24.7 µM | HL-60 > 77.6 µM | HOP-92 26.2 µM | M14 18 µM | M19-MEL 17.5 µM | MDA-MB-231 20.9 µM | MOLT-4 > 84.7 µM | NCI-H226 > 46.2 µM | OVCAR-3 46 µM | OVCAR-8 37.5 µM | RXF 393 26.7 µM | SF-268 15.8 µM | SK-MEL-28 19.5 µM | SNB-75 > 78.7 µM | SW-620 21.4 µM | UACC-257 18.2 µM | UO-31 57.3 µM
20.5 µM: HCT-15

CC[N+](C)(CC)CC(C)(C)C(=O)/C=C/c1ccc(/C=C/C(=O)C(C)(C)C[N+](C)(CC)CC)cc1
> 100 µM: HCT-15
inactive: 786-0 > 100 µM | A549 > 100 µM | HCC 2998 > 100 µM | HL-60 > 100 µM | HOP-92 > 100 µM | M14 > 100 µM | M19-MEL > 100 µM | MOLT-4 > 100 µM | NCI-H226 > 100 µM | OVCAR-3 > 100 µM | OVCAR-8 > 100 µM | RXF 393 > 100 µM | SF-268 > 100 µM | SK-MEL-28 > 100 µM | SNB-75 > 100 µM | SW-620 > 100 µM | UACC-257 > 100 µM | UO-31 > 100 µM

Cn1cc2ccccc2c1-c1nc(F)nc(OCC(=O)[C@H]2CCC3[C@@H]4CCC5=CC(=O)CC[C@]5(C)C4[C@@H](O)C[C@@]32C)n1 (stereo partly drawn)
inactive: 786-0 16.5 µM | A549 32.4 µM | HCC 2998 25.6 µM | HL-60 6.27 µM | HOP-92 19.8 µM | M14 20.3 µM | M19-MEL 4.34 µM | MOLT-4 4.83 µM | NCI-H226 19.2 µM | OVCAR-3 17 µM | OVCAR-8 7.13 µM | RXF 393 3.92 µM | SF-268 13.1 µM | SK-MEL-28 11.2 µM | SNB-75 19 µM | SW-620 8.04 µM | UACC-257 18.8 µM | UO-31 19.6 µM
7.18 µM: HCT-15
